PubChem BioAssay (NCI)
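Method: 48-hour compound exposure of cells in 96-well plates, five concentrations, linear interpolation of endpoints. TGI: concentration producing complete growth inhibition.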

Legend:
Experiment in all cases: inhibition of tumour cell growth, NCI panel, 48 h
786-0 renal = test system: 786-0 renal
A498 renal = test system: A498 renal
ACHN renal = test system: ACHN renal
EKVX NSCLC = test system: EKVX NSCLC
HCT-116 colon = test system: HCT-116 colon
IGROV1 ovarian = test system: IGROV1 ovarian
K-562 leukemia = test system: K-562 leukemia
KM12 colon = test system: KM12 colon
MCF7 breast = test system: MCF7 breast
NCI-H226 lung = test system: NCI-H226 lung
NCI-H23 lung = test system: NCI-H23 lung
NCI-H460 lung = test system: NCI-H460 lung
OVCAR-8 ovarian = test system: OVCAR-8 ovarian
RPMI-8226 leukemia = test system: RPMI-8226 leukemia
SF-295 CNS = test system: SF-295 CNS
SF-539 CNS = test system: SF-539 CNS
UACC-62 melanoma = test system: UACC-62 melanoma
UO-31 renal = test system: UO-31 renal
NCI-H522 lung = test system: NCI-H522 lung
SR leukemia = test system: SR leukemia

Row | Structure (SMILES) | TGI (786-0 renal) [µM] | TGI (A498 renal) [µM] | TGI (ACHN renal) [µM] | TGI (EKVX NSCLC) [µM] | TGI (HCT-116 colon) [µM] | TGI (IGROV1 ovarian) [µM] | TGI (K-562 leukemia) [µM] | TGI (KM12 colon) [µM] | TGI (MCF7 breast) [µM] | TGI (NCI-H226 lung) [µM] | TGI (NCI-H23 lung) [µM] | TGI (NCI-H460 lung) [µM] | TGI (OVCAR-8 ovarian) [µM] | TGI (RPMI-8226 leukemia) [µM] | TGI (SF-295 CNS) [µM] | TGI (SF-539 CNS) [µM] | TGI (UACC-62 melanoma) [µM] | TGI (UO-31 renal) [µM] | TGI (NCI-H522 lung) [µM] | TGI (SR leukemia) [µM]
1 | COc1ccc(C2OC(N)=C(C#N)C3=C2CCCC3C)cc1OC (stereo not given) | > 100 | > 100 | > 100 | > 100 | > 100 | > 100 | > 100 | > 100 | > 100 | > 100 | > 100 | > 100 | > 100 | > 100 | > 100 | > 100 | > 100 | > 100 |  | 
2 | CC1(C)CC(=O)C(C=NC(=O)c2ccncc2)=C(O)C1 | > 100 |  | > 100 | > 100 | > 100 | > 100 |  | > 100 | > 100 | > 100 | > 100 | > 100 | > 100 |  | > 100 | > 100 | > 100 | > 100 | > 100 | 
3 | COc1ccc2[nH]c3c(c2c1)CC(=S)N1CCCC(CC3=O)C1 (stereo not given) | > 100 | > 100 | > 100 | > 100 | > 100 | > 100 |  | > 100 | > 100 | > 100 | > 100 | 92.6 | > 100 | > 100 | > 100 |  | > 100 | > 100 |  | 
4 | CCOC(=O)CO/N=C1/C(c2c(O)[nH]c3ccccc23)=Nc2ccccc21 | > 100 | 38.2 | > 100 | > 100 | > 100 | 79.2 | > 100 | > 100 | > 100 |  | > 100 | > 100 | > 100 | > 100 | > 100 | > 100 | > 100 | > 100 | > 100 | 
5 | COC(=O)[C@]12CCC(C)(C)C[C@H]1[C@H]1C(=O)C=C3[C@@]4(C)C=C(C#N)C(=O)C(C)(C)[C@@H]4CC[C@@]3(C)[C@]1(C)CC2 | 0.415 | 0.114 | 0.0639 | 0.208 | 0.0441 | 1.15 | > 27.9 | 0.159 |  | 0.301 | 0.0392 | > 13.5 | 0.0414 | 0.126 | 0.105 | 0.103 | 0.0945 | 1.15 | > 100 | 0.141
6 | CCOC(=O)c1nc2ccc(C(F)(F)F)cc2[nH]c1=O | > 100 | > 100 | > 100 |  | > 100 | > 100 | > 100 | > 100 | > 100 | > 100 | > 100 | > 100 | > 100 | > 100 | > 100 | > 100 | > 100 | > 100 |  | > 100
7 | O=C(O/C=C\OC1CCCC1(c1ccccc1)c1ccccc1)c1ccccc1 (stereo not given) | 14 | 64.3 | 13.9 | 34.8 | 6.52 | 9.37 | > 36 | 33.1 | 6.67 | 43.2 | 6.07 | 88.8 | 12.1 | 6.44 | 34.9 | 13.5 | 16.8 | 3.84 | 43 | 
8 | c1ccc(NN=C(c2ccccn2)c2ccccn2)nc1 | > 100 | 7.11 | > 100 | > 100 | > 100 | > 100 | > 100 | > 100 | > 100 |  | > 100 | > 100 | > 100 |  | > 100 | > 47.5 |  | 0.513 | > 100 | 
9 | CN1CCc2c(sc3ncn(C)c(=N)c23)C1 | > 100 | > 100 | > 100 | > 100 | > 100 | > 100 | > 100 | > 100 | > 100 | > 100 | > 100 | > 100 | > 100 | > 100 | > 100 | > 100 | > 100 |  | > 100 | 
10 | COc1cc(C(C)=O)cc(C(=O)N(C(C)C)C(C)C)c1[Si](C)(C)C | > 100 | > 100 | > 100 |  | > 100 | > 100 |  | > 100 | > 100 | > 100 | > 100 | > 100 | > 100 |  | > 100 | > 100 | > 100 | > 100 | > 100 | 
11 | O=C(N[C@@H](c1ccccc1)[C@@H](O)C(=O)OCc1ccc([N+](=O)[O-])cc1)c1ccccc1 | > 100 | > 100 | > 100 | > 100 | > 100 | > 100 | > 100 | > 100 | > 100 | > 100 | > 100 | > 100 | > 100 |  |  | > 100 | > 100 | > 100 | > 100 | 
12 | N#CC1=C(Nc2ccccc2)SC=C(c2ccccc2)NC1=NCc1ccccc1 | > 100 | > 100 | > 100 |  | > 100 |  | 97.6 | > 100 | > 100 |  | > 100 |  | > 100 | > 100 |  | > 100 | > 100 | > 100 | > 100 | 59.1
13 | CCCCCCCCCCCCC/C=C/[C@@H](O)[C@H](COC1OC(CO)C(OC2OC(CO)C(O)C(OC3(C(=O)O)CC(O)C(NC(C)=O)C(C(O)C(O)CO)O3)C2O)C(O)C1O)N=[N+]=[N-] (stereo not given in full) | > 100 | > 100 | > 100 | > 100 | > 100 | 85.5 | 60.6 | 34.1 | > 100 | 45.9 | > 100 | > 100 | 44.9 | > 100 | 88 | 31.9 | 37.1 | 44.1 | 70.5 | 
